Reference: paper PMC9503778, “Targeted Isolation of Antibiotic Brominated Alkaloids from the Marine Sponge Pseudoceratina durissima Using Virtual Screening and Molecular Networking” (Marine Drugs, 2022)
In brackets after ≈: the same amount, converted by molar mass. Several values for one entry are separate records, joined by “and”; a condition that tells them apart may be missing. Equal entries are not always repeated. Where two headings read alike, the source gives them in different places.

Key:
[1] = tested on: E. Coli (G-) strain ATCC 25922; test: Antimicrobial growth inhibition (CO-ADD), E. coli; format: cell-based, Escherichia coli; conditions: for % inhibition E. coli: 32 µg/mL; for % inhibition E. coli / inhibition at 32 µg/mL: duplicate (n = 2) values; for inhibition at 32 µg/mL / MIC: Escherichia coli; for inhibition at 32 µg/mL: ATCC25922, 32 µg/mL, read-out: % inhibition E. coli; for MIC: ATCC25922, read-out: MIC E. coli
Experimental: (§1) Compounds 1−3 and 5−12 were assayed against a selection of medically important pathogenic microorganisms (MRSA, E. coli, K. pneumoniae, A. baumanii, P. aeruginosa, C. albicans, C. neoformans), Table 4. […] To the best of our knowledge this compound had not been tested against any drug resistant strain of Gram-positive bacterium until this study.
(§2) The antimicrobial activity testing was performed by the Community for Antimicrobial Drug Discovery (CO-ADD). Compounds were assayed against a range of both Gram negative and Gram positive bacteria (see Supplementary Materials S3) including methicillin-resistant Staphylococcus aureus (MRSA) (G+), Escherichia coli (G-), Klebsiella pneumoniae (G-), Acinetobacter baumannii (G-), Pseudomonas aeruginosa (G-) together with two species of fungus (Candida albicans and Cryptococcus neoformans).
(§3) S3. Antimicrobial activity testing methodology
(§4) The compounds submitted to CO-ADD were evaluated in duplicate (n = 2) against seven microorganisms (five bacteria and two fungi) at a concentration of 32 µg/mL in a 384-well, non-binding surface plate (NBS) for each bacterial/fungal strain, keeping the final DMSO concentration to a maximum of 1% DMSO. All bacteria were cultured in cation-adjusted Mueller-Hinton broth (CAMHB) at 37 °C overnight. A sample of each culture was then diluted 40-fold in fresh broth and incubated at 37 °C for 1.5-3 h. The resultant mid-log phase cultures were diluted (CFU/mL measured by OD600), then added to each well of the compound containing plates, giving a cell density of 5x10^5 CFU/mL and a total volume of 50 µL. All the plates were covered and incubated at 37 °C for 18 h without shaking. […] Inhibition of bacterial growth was determined measuring absorbance at 600 nm (OD600) using a Tecan M1000 Pro mon-ochromator plate reader. […]
(§5) 2 h. The absorbance was measured using a Biotek Synergy HTX plate reader. The percentage of growth inhibition was calculated for each well, using negative control (medium only) and positive control (bacteria without inhibitors) on the same plate as the references. The significance of inhibition values was determined by modified Z-scores, calculated using the median and MAD of the samples (no controls) on the same plate. Samples with inhibition value above 80% and Z-score above 2.5 for either replicate (n = 2 on different plates) were classed as actives.
(§6) Colistin and vancomycin were used as positive bacterial inhibitor standards for Gram-negative and Gram-positive bac-teria, respectively. Fluconazole was used as a positive fungal inhibitor standard for C. albicans and C. neoformans. The antibiotics were provided in four concentrations, with two above and two below its MIC value, and plated into the first eight wells of column 23 of the 384-well NBS plates. The quality control (QC) of the assays was determined by the antimicrobial controls and the Z’-factor (using positive and negative controls). Each plate was deemed to fulfil the qual- […]
(§7) full growth inhibition at their highest concentration, and no growth inhibition at their lowest concentration. The seven […]
(§8) test microorganisms were Staphylococcus aureus MRSA (ATCC 43300), Escherichia coli (ATCC 25922), Klebsiella pneu-moniae (ATCC 700603), Acinetobacter baumanii (ATCC19606), Pseudomonas aeruginosa (ATCC 27853), Candida albicans (ATCC 90028) and Cryptococcus neoformans var. grubii (H99; ATCC 208821).
(§9) S4. Anthelmintic activity testing methodology
(§10) Dose-response evaluations were carried out to estimate the half-maximal inhibitory concentrations (IC50 values) for compounds against Haemonchus contortus (Haecon-5 strain) exsheathed third-stage larvae (xL3s). H. contortus were maintained in experimental sheep and procured in accordance with the institutional animal ethics guidelines and the regulations of Australia (permit no. 1714374; University of Melbourne). Immediately prior to use, third-stage larvae (L3s) were exsheathed and sterilised by incubation in 0.15% (v/v) bleach at 38 °C for 20 min, followed by washes in […]

[2] = tested on: K. pneumoniae (G-) strain ATCC 700603; test: Antimicrobial growth inhibition (CO-ADD), K. pneumoniae; format: cell-based, Klebsiella pneumoniae; conditions: for % inhibition K. pneumoniae: 32 µg/mL; for % inhibition K. pneumoniae / inhibition at 32 µg/mL: duplicate (n = 2) values; for inhibition at 32 µg/mL / MIC: Klebsiella pneumoniae; for inhibition at 32 µg/mL: ATCC700603, 32 µg/mL, read-out: % inhibition K. pneumoniae; for MIC: ATCC700603, read-out: MIC K. pneumoniae
Experimental: as §1, §2, §3, §4, §5, §6, §7, §8, §9, §10

[3] = tested on: A. baumannii (G-) strain ATCC 19606; test: Antimicrobial growth inhibition (CO-ADD), A. baumannii; format: cell-based, Acinetobacter baumannii; conditions: for MIC: Acinetobacter baumannii, ATCC19606, read-out: MIC A. baumannii
Experimental: as §1, §2, §3, §4, §5, §6, §7, §8, §9, §10

[4] = tested on: P. auruginosa (G-) strain ATCC 27853; test: Antimicrobial growth inhibition (CO-ADD), P. aeruginosa; format: cell-based, Pseudomonas aeruginosa; conditions: ATCC 27853; for MIC: Pseudomonas aeruginosa, ATCC27853, read-out: MIC P. aeruginosa
Experimental: as §1, §2, §3, §4, §5, §6, §7, §8, §9, §10

[5] = Cytotoxicity assay (CO-ADD); format: cell-based; conditions: human, human embryonic kidney cells
human red blood cells = test: Haemolysis assay (CO-ADD); format: cell-based
[6] = tested on: MRSA (G+) strain ATCC 43300; test: Antimicrobial growth inhibition (CO-ADD), MRSA; format: cell-based, Staphylococcus aureus; conditions: for MIC: Staphylococcus aureus, read-out: MIC MRSA
Experimental: as §1, §2, §3, §4, §5, §6, §7, §8, §9, §10

[7] = tested on: C. albicans (yeast) ATCC 90028; test: Antimicrobial growth inhibition (CO-ADD), C. albicans; format: cell-based, Candida albicans; conditions: Candida albicans, ATCC90028; ATCC 90028; read-out: MIC C. albicans
Experimental: as §1, §2, §3
(§11) The compounds submitted to CO-ADD were evaluated in duplicate (n = 2) against seven microorganisms (five bacteria and two fungi) at a concentration of 32 µg/mL in a 384-well, non-binding surface plate (NBS) for each bacterial/fungal strain, keeping the final DMSO concentration to a maximum of 1% DMSO. All bacteria were cultured in cation-adjusted […]
(§12) Fungal strains were cultured for 3 days on Yeast Extract-Peptone Dextrose (YPD) agar at 30 °C. A yeast suspension of 1 x 10^6 to 5 x 10^6 CFU/mL (as determined by OD530) was prepared from five colonies. The suspension was subsequently diluted and added to each well of the compound-containing plates giving a final cell density of fungi suspension of 2.5 x 10^3 CFU/mL and a total volume of 50 µL. All plates were covered and incubated at 35 °C for 24 h without shaking. […]
as §5, §6, §7, §8, §9
Dose-response evaluations were carried out to estimate the half-maximal inhibitory concentrations (IC50 values) for compounds against Haemonchus contortus (Haecon-5 strain) exsheathed third-stage larvae (xL3s). H. contortus were maintained in experimental sheep and procured in accordance with the institutional animal ethics guidelines and the regulations of Australia (permit no. 1714374; University of Melbourne). Immediately prior to use, third-stage larvae (L3s) were exsheathed and sterilised by incubation in 0.15% (v/v) bleach at 38 °C for 20 min, followed by washes in sterile saline at room temperature (22-24 °C). […]

[8] = tested on: C. neoformans var. grubii strain ATCC 208821; test: Antimicrobial growth inhibition (CO-ADD), C. neoformans; format: cell-based; conditions: Cryptococcus neoformans, ATCC208821; var. grubii ATCC 208821; read-out: MIC C. neoformans
[9] = tested on: C. neoformans var. grubii strain ATCC 208821; test: as above; format: cell-based, Cryptococcus neoformans; conditions: duplicate (n = 2) values
Experimental: as §1, §2, §3, §11, §12
as §5, with “Growth inhibition of C. albicans was determined measuring absorbance at 530 nm (OD530), while the growth inhibition of C. neoformans was determined measuring the difference in absorbance between 600 and 570 nm (OD600-570), after the addition of resazurin (0.001% final concentration) and incubation at 35 °C for an additional 2 h.” for “2 h.”
as §6, §7, §8, §9
Dose-response evaluations were carried out to estimate the half-maximal inhibitory concentrations (IC50 values) for compounds against Haemonchus contortus (Haecon-5 strain) exsheathed third-stage larvae (xL3s). H. contortus were maintained in experimental sheep and procured in accordance with the institutional animal ethics guidelines and the […]

[10] = tested on: zebrafish larvae at 5 dpf; set-up: method as in PMID 35200664; conditions: cited from earlier work
[11] = tested on: Mediterranean fish species Blennius sphinx; set-up: method as in PMID 15018063; conditions: cited from earlier work
[12] = ATCC 25922, MIC = concentration at which growth inhibited by ≥80%
[13] = ATCC 43300, MIC = concentration at which growth inhibited by ≥80%, range 0.25−32 µg/mL
[14] = 32 µg/mL, duplicate (n = 2) values

## Colistin [reference compound]
[1]; [12]
  MIC E. coli: Colistin: 0.125 µg/mL
[2]; ATCC 700603
  MIC K. pneumoniae: Colistin: 0.25 µg/mL
[3]; ATCC 19606
  MIC A. baumannii: Colistin: 0.25 µg/mL
[4]
  MIC P. aeruginosa: Colistin: 0.25 µg/mL

## COC1(OC)C(Br)=CC(O)(CC#N)C=C1Br [Compound 7, 2-(3,5-dibromo-1-hydroxy-4,4-dimethoxycyclohexa-2,5-dien-1-yl)acetonitrile]
[5]
  CC50: > 32 µg/mL
Human red blood cells
  Haemolysis (HC10): >32 µg/mL
[6]; [13]
  MIC: > 32 µg/mL
[1]
  % inhibition E. coli: 6.2%
  inhibition at 32 µg/mL: 11.2%
[1]; [12]
  MIC: > 32 µg/mL
[2]
  % inhibition K. pneumoniae: 13.3%
  inhibition at 32 µg/mL: 10.6%
[2]; ATCC 700603
  MIC: > 32 µg/mL
[3]; ATCC 19606
  MIC: > 32 µg/mL
[4]
  MIC: > 32 µg/mL
[7]
  MIC: > 32 µg/mL
[8]
  MIC: > 32 µg/mL

## COC(=O)Cc1c(O)cc(Br)c(O)c1Br [Compound 10, subereaphenol B]
[5]
  CC50: > 32 µg/mL
Human red blood cells
  Haemolysis (HC10): >32 µg/mL
[6]; [13]
  MIC: > 32 µg/mL
[1]
  % inhibition E. coli: 15.8% and 6.4%
[1]; [12]
  MIC: > 32 µg/mL
[2]
  % inhibition K. pneumoniae: 9.3%
  inhibition at 32 µg/mL: 6.1%
[2]; ATCC 700603
  MIC: > 32 µg/mL
[3]; [14]
  % inhibition A. baumannii: −1.4% and −9.2%
[3]; ATCC 19606
  MIC: > 32 µg/mL
[4]
  MIC: > 32 µg/mL
[7]
  MIC: > 32 µg/mL
[9]; 32 µg/mL
  % inhibition C. neoformans: 8.5%
[9]; Cryptococcus neoformans, ATCC208821, 32 µg/mL, read-out: % inhibition C. neoformans
  inhibition at 32 µg/mL: 12.4%
[8]
  MIC: > 32 µg/mL

## CC[C@H](C)[C@H](NC(=O)CN)C(=O)NCC(=O)N[C@@H](C)C(=O)N[C@H](C(=O)N[C@@H](CC(C)C)C(=O)N[C@@H](CCCCN)C(=O)N[C@H](C(=O)N[C@@H](CC(C)C)C(=O)N[C@H](C(=O)N[C@H](C(=O)NCC(=O)N[C@@H](CC(C)C)C(=O)N1CCC[C@H]1C(=O)N[C@@H](C)C(=O)N[C@@H](CC(C)C)C(=O)N[C@H](C(=O)N[C@@H](CO)C(=O)N[C@@H](Cc1c[nH]c2ccccc12)C(=O)N[C@H](C(=O)N[C@@H](CCCCN)C(=O)N[C@@H](CCCNC(=N)N)C(=O)N[C@@H](CCCCN)C(=O)N[C@@H](CCCNC(=N)N)C(=O)N[C@@H](CCC(N)=O)C(=O)N[C@@H](CCC(N)=O)C(N)=O)[C@@H](C)CC)[C@@H](C)CC)[C@@H](C)O)[C@@H](C)O)C(C)C)C(C)C [Melittin, reference compound]
Human red blood cells
  Haemolysis (HC10): Melittin: 2.7 µg/mL

## COC1=C(Br)[C@@H](O)[C@]2(C=C1Br)CC(C(=O)NCCc1cnc[nH]1)=NO2 [aerophobin-1]
[10]
  concentration giving significant larval mortality: > 1000 nM

## OC(Cn1cncn1)(Cn1cncn1)c1ccc(F)cc1F [Fluconazole, reference compound]
[7]
  MIC: 0.125 µg/mL
[8]
  MIC: 8 µg/mL (≈ 26.1 µM)

## CN[C@H](CC(C)C)C(=O)N[C@H]1C(=O)N[C@@H](CC(N)=O)C(=O)N[C@H]2C(=O)N[C@H]3C(=O)N[C@H](C(=O)N[C@H](C(=O)O)c4cc(O)cc(O)c4-c4cc3ccc4O)[C@H](O)c3ccc(c(Cl)c3)Oc3cc2cc(c3O[C@@H]2O[C@H](CO)[C@@H](O)[C@H](O)[C@H]2O[C@H]2C[C@](C)(N)[C@H](O)[C@H](C)O2)Oc2ccc(cc2Cl)[C@H]1O [Vancomycin, reference compound]
[6]
  MIC: 1 µg/mL

## COC1=C(Br)[C@H](O)[C@@]2(C=C1Br)CC(C(=O)NCCCc1cnc(N)[nH]1)=NO2 [aerophobin-2]
[10]
  concentration giving significant larval mortality: > 1000 nM

## CC/C(=C(\c1ccccc1)c1ccc(OCCN(C)C)cc1)c1ccccc1 [Tamoxifen, reference compound]
[5]
  CC50: 9 µg/mL (≈ 24.2 µM)

## COC(=O)NCCCCNC(=O)C1=NO[C@]2(C=C(Br)C(OC)=C(Br)[C@@H]2O)C1 [Compound 12, subereamolline C]
[5]
  CC50: > 32 µg/mL
Human red blood cells
  Haemolysis (HC10): >32 µg/mL
[6]; [14]
  % inhibition MRSA: 0.4% and 8.2%
[6]; [13]
  MIC: > 32 µg/mL
[1]
  % inhibition E. coli: 6.4%
  inhibition at 32 µg/mL: 12.3%
[1]; [12]
  MIC: > 32 µg/mL
[2]
  % inhibition K. pneumoniae: 14.0% and 5.6%
[2]; ATCC 700603
  MIC: > 32 µg/mL
[3]; ATCC 19606
  MIC: > 32 µg/mL
[4]
  MIC: > 32 µg/mL
[7]
  MIC: > 32 µg/mL
[8]
  MIC: > 32 µg/mL

## aplysinamisin-1 [reference compound]
[11]
  feeding deterrent activity, Blennius sphinx: significant feeding deterrent activity
